This is an account of results in patent US20090286836A1, “Novel Compounds” (priority 2008, published 2009).

This assay concerns the target T1, human NK2 receptor (Homo sapiens, UniProt P21452).
T1 construct: expressed in transfected cells; host or cells: human U2OS cells transiently transduced with recombinant BacMam virus
T1 sequence (P21452 1-398): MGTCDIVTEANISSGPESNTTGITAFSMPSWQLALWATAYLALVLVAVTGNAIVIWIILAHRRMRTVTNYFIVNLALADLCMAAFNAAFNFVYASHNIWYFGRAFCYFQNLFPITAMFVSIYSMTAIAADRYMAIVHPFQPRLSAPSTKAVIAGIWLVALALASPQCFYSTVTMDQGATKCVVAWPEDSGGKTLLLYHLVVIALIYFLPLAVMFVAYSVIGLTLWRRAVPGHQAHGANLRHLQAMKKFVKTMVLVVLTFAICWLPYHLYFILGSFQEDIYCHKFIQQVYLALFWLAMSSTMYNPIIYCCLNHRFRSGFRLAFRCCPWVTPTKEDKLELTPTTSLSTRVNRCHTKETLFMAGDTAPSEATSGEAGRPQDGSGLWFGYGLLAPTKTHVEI
The assay is described as follows: NK functional potency, FLIPR calcium release in U2OS cells (NKA as ligand). Format: cell-based. Particulars: BacMam human NK2, average of at least two determinations, read-out: NK2 pKi (functional potency, fpKi) (converted). The source says: Compounds of the invention were further characterised in a functional assay using FLIPR technology for the determination of their effect to inhibit the intracellular calcium release induced by interaction of NK receptors with its perspective ligands. Human U2OS cells transiently transduced with recombinant BacMam virus expressing human NK1, NK2 and NK3 receptors were used in the studies (see J. P. Condreay et al, Proc. Natl. Acad. Sci. USA 1999, 96(1): 127-132). Briefly, U2OS cells were harvested from tissue culture flasks, re-suspended to a cell density of 200-300K/ml and mixed with recombinant BacMam virus carrying NKR gene in a virus/cell ratio of 1% (v/v). 10K-15K cells/well were then seeded in 384-well Greiner bio-one plate in culture medium (DMEM with 10% FBS), incubated overnight in 5% CO2 at 37° C. […] Finally, 10 uL/well of NKR ligands in assay buffer containing 0.1% BSA was added to the cells and fluorescence signal read on a FLIPR system. […] IC50 values of each compound were determined by an 11-point 3×-dilution inhibition curve. The potency each antagonist (fpKi) was calculated from pIC50 by the Cheng-Prusoff equation using EC50 of ligand determined in a separate experiment. […]

Where a name gives a salt, the structure may show the parent alone. A value given as a limit tells only on which side of the number the result lay.

As to `Cc1cc(F)ccc1-c1cc([C@H]2CC[C@](C)(C(N)=O)N2)ncc1N(C)C(=O)C(C)(C)c1cc(C(F)(F)F)cc(C(F)(F)F)c1` [Example 11, (5R)-5-[5-[{2-[3,5-bis(trifluoromethyl)phenyl]-2-methylpropanoyl}(methyl)amino]-4-(4-fluoro-2-methylphenyl)-2-pyridinyl]-2-methyl-D-prolinamide bis-hydrochloride], the Ki was more than 1 µM.
